Source: patent US8163756B2 (priority 2004, dated 2012)

molecular target: phosphorylated p-38-alpha kinase (Homo sapiens, UniProt Q16539); experiment: P-38 alpha kinase assay P1 (coupled spectrophotometric, 2 h pre-incubation); type: biochemical; settings: method P1 (2 h pre-incubation); read-out: P-38 Data
Sequence (Q16539 1-360 isoform Q16539-2): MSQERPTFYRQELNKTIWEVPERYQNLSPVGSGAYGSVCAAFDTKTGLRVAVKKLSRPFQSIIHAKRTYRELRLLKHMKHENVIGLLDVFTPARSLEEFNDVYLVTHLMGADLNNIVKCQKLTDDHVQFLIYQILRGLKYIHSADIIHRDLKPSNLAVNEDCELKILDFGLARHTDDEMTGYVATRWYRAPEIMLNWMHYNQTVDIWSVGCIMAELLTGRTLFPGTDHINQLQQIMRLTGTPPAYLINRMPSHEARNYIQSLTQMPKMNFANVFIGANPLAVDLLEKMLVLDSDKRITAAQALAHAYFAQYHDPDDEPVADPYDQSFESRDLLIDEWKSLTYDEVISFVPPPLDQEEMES

Row | Structure (SMILES) | IC50
1 | O=C(O)Cc1cccc(-n2nc(-c3cccs3)cc2NC(=O)N[C@H]2CCc3ccccc32)c1 [Example 361, 2-(3-(5-(3-((S)-2,3-dihydro-1H-inden-1-yl)ureido)-3-(thiophen-2-yl)-1H-pyrazol-1-yl)phenyl)acetic acid] | 30 nM
2 | O=C(O)Cc1cccc(-n2nc(-c3ccccc3F)cc2NC(=O)Nc2ccc(F)c(F)c2F)c1 [Example 362, 2-(3-(3-(2-fluorophenyl)-5-(3-(2,3,4-trifluorophenyl)-ureido)-1H-pyrazol-1-yl)phenyl)acetic acid] | 38 nM
3 | O=C(O)Cc1cccc(-n2nc(-c3ccccc3F)cc2NC(=O)Nc2cccc3ccccc23)c1 [Example 363, 2-(3-(3-(2-Fluorophenyl)-5-(3-(naphthalen-1-yl)ureido)-1H-pyrazol-1-yl)phenyl)acetic acid] | 13 nM
4 | O=C(O)Cc1cccc(-n2nc(-c3cccs3)cc2NC(=O)Nc2cccc3ccccc23)c1 [Example 364, 2-(3-(5-(3-(naphthalen-1-yl)ureido)-3-(thiophen-2-yl)-1H-pyrazol-1-yl)phenyl)acetic acid] | 13 nM
5 | O=C(O)Cc1cccc(-n2nc(-c3cccs3)cc2NC(=O)Nc2ccc(F)c(F)c2F)c1 [Example 365, 2-(3-(3-(thiophen-2-yl)-5-(3-(2,3,4-trifluorophenyl)-ureido)-1H-pyrazol-1-yl)phenyl)acetic acid] | 70 nM
6 | O=C(O)Cc1ccc(-n2nc(-c3ccccc3F)cc2NC(=O)Nc2ccc(F)c(F)c2F)cc1 [Example 388, 2-(4-(3-(2-fluorophenyl)-5-(3-(2,3,4-trifluorophenyl)ureido)-1H-pyrazol-1-yl)phenyl)acetic acid] | 91 nM
7 | O=C(O)Cc1ccc(-n2nc(-c3cccs3)cc2NC(=O)N[C@H]2CCc3ccccc32)cc1 [Example 389, 2-(4-(5-(3-((S)-2,3-dihydro-1H-inden-1-yl)ureido)-3-(thiophen-2-yl)-1H-pyrazol-1-yl)phenyl)acetic acid] | 13 nM
8 | CNC(=O)Cc1cccc(-n2nc(C(C)(C)C)cc2NC(=O)Nc2cccc(F)c2F)c1 [Example 401, 1-(3-t-butyl-1-(3-(2-(methylamino)-2-oxoethyl)phenyl)-1H-pyrazol-5-yl)-3-(2,3-difluorophenyl)urea] | 63 nM
9 | CNC(=O)Cc1cccc(-n2nc(C(C)(C)C)cc2NC(=O)Nc2ccc(F)c(F)c2F)c1 [Example 402, 1-(3-t-butyl-1-(3-(2-(methylamino)-2-oxoethyl)phenyl)-1H-pyrazol-5-yl)-3-(2,3,4-trifluorophenyl)urea] | 26 nM
10 | CC(C)(C)c1cc(NC(=O)Nc2cccc(Cl)c2Cl)n(-c2cccc(CC(=O)N3CCC[C@@H]3CO)c2)n1 [Example 407, 1-(3-t-butyl-1-(3-(2-((R)-2-(hydroxymethyl)pyrrolidin-1-yl)-2-oxoethyl)phenyl)-1H-pyrazol-5-yl)-3-(2,3-dichlorophenyl)urea] | 45 nM
11 | CC(C)(C)c1cc(NC(=O)Nc2cccc(Cl)c2Cl)n(-c2cccc(CC(=O)N3CCC[C@H]3CO)c2)n1 [Example 408, 1-(3-t-butyl-1-(3-(2-((S)-2-(hydroxymethyl)pyrrolidin-1-yl)-2-oxoethyl)phenyl)-1H-pyrazol-5-yl)-3-(2,3-dichlorophenyl)urea] | 46 nM
12 | COC[C@@H]1CCCN1C(=O)Cc1cccc(-n2nc(C(C)(C)C)cc2NC(=O)Nc2cccc(Cl)c2Cl)c1 [Example 409, 1-(3-t-butyl-1-(3-(2-((S)-2-(methoxymethyl)pyrrolidin-1-yl)-2-oxoethyl)phenyl)-1H-pyrazol-5-yl)-3-(2,3-dichlorophenyl)urea] | 150 nM
13 | NC(=O)Cc1cccc(-n2nc(-c3nccs3)cc2NC(=O)Nc2cccc(Cl)c2Cl)c1 [Example 410, 1-(1-(3-(2-amino-2-oxoethyl)phenyl)-3-(thiazol-2-yl)-1H-pyrazol-5-yl)-3-(2,3-dichlorophenyl)urea] | 88 nM
14 | NC(=O)Cc1cccc(-n2nc(-c3ccccc3F)cc2NC(=O)N[C@H]2CCc3ccccc32)c1 [Example 411, 1-(1-(3-(2-amino-2-oxoethyl)phenyl)-3-(2-fluorophenyl)-1H-pyrazol-5-yl)-3-((S)-2,3-dihydro-1H-inden-1-yl)urea] | 37 nM
15 | O=C(Cc1cccc(-n2nc(-c3ccccc3F)cc2NC(=O)N[C@H]2CCc3ccccc32)c1)NCCO [Example 412, 1-((S)-2,3-dihydro-1H-inden-1-yl)-3-(3-(2-fluorophenyl)-1-(3-(2-(2-hydroxyethylamino)-2-oxoethyl)phenyl)-1H-pyrazol-5-yl)urea] | 41 nM
16 | O=C(Cc1cccc(-n2nc(-c3ccccc3F)cc2NC(=O)N[C@H]2CCc3ccccc32)c1)NCC(O)CO (stereo partly drawn) [Example 413, 1-((S)-2,3-dihydro-1H-inden-1-yl)-3-(1-(3-(2-(2,3-dihydroxypropylamino)-2-oxoethyl)phenyl)-3-(2-fluorophenyl)-1H-pyrazol-5-yl)urea] | 28 nM
17 | NC(=O)Cc1cccc(-n2nc(-c3cccs3)cc2NC(=O)N[C@H]2CCc3ccccc32)c1 [Example 415, 1-(1-(3-(2-amino-2-oxoethyl)phenyl)-3-(thiophen-2-yl)-1H-pyrazol-5-yl)-3-((S)-2,3-dihydro-1H-inden-1-yl)urea] | 17 nM

Row | Structure (SMILES) | IC50
18 | O=C(Cc1cccc(-n2nc(-c3cccs3)cc2NC(=O)N[C@H]2CCc3ccccc32)c1)NCCO [Example 416, 1-((S)-2,3-dihydro-1H-inden-1-yl)-3-(1-(3-(2-(2-hydroxyethylamino)-2-oxoethyl)phenyl)-3-(thiophen-2-yl)-1H-pyrazol-5-yl)urea] | 32 nM
19 | O=C(Cc1cccc(-n2nc(-c3cccs3)cc2NC(=O)N[C@H]2CCc3ccccc32)c1)NCC(O)CO (stereo partly drawn) [Example 417, 1-((S)-2,3-dihydro-1H-inden-1-yl)-3-(1-(3-(2-(2,3-dihydroxypropylamino)-2-oxoethyl)phenyl)-3-(thiophen-2-yl)-1H-pyrazol-5-yl)urea] | 29 nM
20 | CN(C)[C@H]1CCN(C(=O)Cc2cccc(-n3nc(C4CCCC4)cc3NC(=O)Nc3cccc(Cl)c3Cl)c2)C1 [Example 419, 1-(3-cyclopentyl-1-(3-(2-((S)-3-(dimethylamino)pyrrolidin-1-yl)-2-oxoethyl)phenyl)-1H-pyrazol-5-yl)-3-(2,3-dichlorophenyl)urea] | 38 nM
21 | NC(=O)Cc1cccc(-n2nc(-c3ccccc3F)cc2NC(=O)Nc2ccc(F)c(F)c2F)c1 [Example 422, 1-(1-(3-(2-Amino-2-oxoethyl)phenyl)-3-(2-fluorophenyl)-1H-pyrazol-5-yl)-3-(2,3,4-trifluorophemyl)urea] | 98 nM
22 | NC(=O)Cc1cccc(-n2nc(-c3ccccc3F)cc2NC(=O)Nc2cccc3ccccc23)c1 [Example 423, 1-(1-(3-(2-amino-2-oxoethyl)phenyl)-3-(2-fluorophenyl)-1H-pyrazol-5-yl)-3-(naphthalen-1-yl)urea] | 21 nM
23 | O=C(Cc1cccc(-n2nc(-c3ccccc3F)cc2NC(=O)Nc2ccc(F)c(F)c2F)c1)NCC(O)CO (stereo not drawn) [Example 424, 1-(1-(3-(2-(2,3-Dihydroxypropylamino)-2-oxoethyl)phenyl)-3-(2-fluorophenyl)-1H-pyrazol-5-yl)-3-(2,3,4-trifluorophenyl)urea] | 47 nM
24 | O=C(Cc1cccc(-n2nc(-c3ccccc3F)cc2NC(=O)Nc2cccc3ccccc23)c1)NCC(O)CO (stereo not drawn) [Example 425, 1-(1-(3-(2-(2,3-dihydroxypropylamino)-2-oxoethyl)phenyl)-3-(2-fluorophenyl)-1H-pyrazol-5-yl)-3-(naphthalen-1-yl)urea] | 29 nM
25 | O=C(Cc1cccc(-n2nc(-c3ccccc3F)cc2NC(=O)Nc2cccc3ccccc23)c1)NCCO [Example 426, 1-(3-(2-fluorophenyl)-1-(3-(2-(2-hydroxyethylamino)-2-oxoethyl)phenyl)-1H-pyrazol-5-yl)-3-(naphthalen-1-yl)urea] | 38 nM
26 | O=C(Cc1cccc(-n2nc(-c3cccs3)cc2NC(=O)Nc2cccc3ccccc23)c1)NCCO [Example 428, 1-(1-(3-(2-(2-hydroxyethylamino)-2-oxoethyl)phenyl)-3-(thiophen-2-yl)-1H-pyrazol-5-yl)-3-(naphthalen-1-yl)urea] | 12 nM
27 | O=C(Cc1cccc(-n2nc(-c3ccc(F)cc3)cc2NC(=O)Nc2cccc(Cl)c2Cl)c1)NCCO [Example 455, 1-(2,3-dichlorophenyl)-3-(3-(4-fluorophenyl)-1-(3-(2-(2-hydroxyethylamino)-2-oxoethyl)phenyl)-1H-pyrazol-5-yl)urea] | 82 nM
28 | CC(C)(C)c1cc(NC(=O)Nc2ccc(F)c(F)c2F)n(-c2ccc(CC(N)=O)cc2)n1 [Example 466, 1-(1-(4-(2-amino-2-oxoethyl)phenyl)-3-t-butyl-1H-pyrazol-5-yl)-3-(2,3,4-trifluorophenyl)urea] | 22 nM
29 | NC(=O)Cc1ccc(-n2nc(-c3cccc(F)c3)cc2NC(=O)Nc2cccc(Cl)c2Cl)cc1 [Example 480, 1-(1-(4-(2-amino-2-oxoethyl)phenyl)-3-(3-fluorophenyl)-1H-pyrazol-5-yl)-3-(2,3-dichlorophenyl)urea] | 73 nM
30 | O=C(Cc1ccc(-n2nc(-c3cccc(F)c3)cc2NC(=O)Nc2cccc(Cl)c2Cl)cc1)NCC(O)CO (stereo not drawn) [Example 481, 1-(2,3-dichlorophenyl)-3-(1-(4-(2-(2,3-dihydroxypropylamino)-2-oxoethyl)phenyl)-3-(3-fluorophenyl)-1H-pyrazol-5-yl)urea] | 33 nM
31 | COC[C@H]1CCCN1C(=O)Cc1ccc(-n2nc(C(C)(C)C)cc2NC(=O)Nc2cccc(Cl)c2Cl)cc1 [Example 484, (R)-1-(3-t-butyl-1-(4-(2-(2-(methoxymethyl)pyrrolidin-1-yl)-2-oxoethyl)phenyl)-1H-pyrazol-5-yl)-3-(2,3-dichlorophenyl)urea] | 13 nM
32 | COC[C@@H]1CCCN1C(=O)Cc1ccc(-n2nc(C(C)(C)C)cc2NC(=O)Nc2cccc(Cl)c2Cl)cc1 [Example 485, (S)-1-(3-t-butyl-1-(4-(2-(2-(methoxymethyl)pyrrolidin-1-yl)-2-oxoethyl)phenyl)-1H-pyrazol-5-yl)-3-(2,3-dichlorophenyl)urea] | 12 nM
33 | NC(=O)Cc1ccc(-n2nc(-c3cccs3)cc2NC(=O)N[C@H]2CCc3ccccc32)cc1 [Example 489, 1-(1-(4-(2-amino-2-oxoethyl)phenyl)-3-(thiophen-2-yl)-1H-pyrazol-5-yl)-3-((S)-2,3-dihydro-1H-inden-1-yl)urea] | 35 nM
